Species: Rattus norvegicus
Experiment: Open TG-GATES - Regimen: Daily Repeat
Type: toxicity, organism-based, Sprague-Dawley
Set-up: regimen Daily Repeat, gender Male, age 6 weeks
Settings: in vivo, po, route gavage; for A/G / ALP / ALT / AST / BUN / CRE / Ca / Cl / DBIL / GLC / IP / K / LDH / Na / PL / RALB / TBIL / TC / TG / TP / gamma-GTP: tissue Plasma; for APTT / Bas / Eos / Fbg / Hb / Ht / Lym / MCH / MCHC / MCV / Mono / Neu / PT / Plat / RBC / Ret / WBC: tissue Blood; for KIDNEY_L / KIDNEY_R / KIDNEY_TOTAL: tissue Kidney; for LIVER: tissue Liver
[1] = 1 mg/kg, […], dose level Low, time 14 day
[2] = 1 mg/kg, […], dose level Low, time 28 day
[3] = 2 mg/kg, 72 h, dose level Middle, time 3 day
[4] = 2 mg/kg, […], dose level Middle, time 7 day
[5] = 2 mg/kg, […], dose level Middle, time 14 day
[6] = 2 mg/kg, […], dose level Middle, time 28 day
[7] = 5 mg/kg, 72 h, dose level High, time 3 day
[8] = 5 mg/kg, […], dose level High, time 7 day
[9] = 5 mg/kg, […], dose level High, time 14 day

Structure (SMILES): COc1ccc2c(c1)c(CC(=O)O)c(C)n2C(=O)c1ccc(Cl)cc1 [INDOMETHACIN]
- A/G [1]: 1.8
- ALP [1]: 725.6 IU/L
- ALT [1]: 33.6 IU/L
- AST [1]: 60.6 IU/L
- BUN [1]: 19.6 mg/dL
- CRE [1]: 0.6 mg/dL
- Ca [1]: 10.5 mg/dL
- Cl [1]: 105.6 meq/L
- DBIL [1]: 0.004 mg/dL
- GLC [1]: 194.8 mg/dL
- IP [1]: 8.1 mg/dL
- K [1]: 4.5 meq/L
- LDH [1]: 87.2 IU/L
- Na [1]: 139.4 meq/L
- PL [1]: 165.2 mg/dL
- RALB [1]: 4.2 g/dL
- TBIL [1]: 0.3 mg/dL
- TC [1]: 81.2 mg/dL
- TG [1]: 161 mg/dL
- TP [1]: 6.5 g/dL
- gamma-GTP [1]: 1.4 IU/L
- A/G [2]: 1.9
- ALP [2]: 695.6 IU/L
- ALT [2]: 31 IU/L
- AST [2]: 62.6 IU/L
- BUN [2]: 21.6 mg/dL
- CRE [2]: 0.7 mg/dL
- Ca [2]: 10.6 mg/dL
- Cl [2]: 106.6 meq/L
- DBIL [2]: 0.008 mg/dL
- GLC [2]: 203.8 mg/dL
- IP [2]: 7.8 mg/dL
- K [2]: 4.2 meq/L
- LDH [2]: 101.8 IU/L
- Na [2]: 139.6 meq/L
- PL [2]: 157.8 mg/dL
- RALB [2]: 4.2 g/dL
- TBIL [2]: 0.3 mg/dL
- TC [2]: 77.8 mg/dL
- TG [2]: 178.4 mg/dL
- TP [2]: 6.5 g/dL
- gamma-GTP [2]: 1.2 IU/L
- TERMINAL_BW [3]: 238.9 g
- APTT [3]: 16 s
- Bas [3]: 0%
- Eos [3]: 0.6%
- Fbg [3]: 218.2 mg/dL
- Hb [3]: 13.5 g/dL
- Ht [3]: 40.5%
- Lym [3]: 82.2%
- MCH [3]: 21.1 pg
- MCHC [3]: 33.4%
- MCV [3]: 63.3 fL
- Mono [3]: 6.4%
- Neu [3]: 10.8%
- PT [3]: 11.1 s
- Plat [3]: 112.9 x10_4/uL
- RBC [3]: 638.8 x10_4/ul
- Ret [3]: 7.1%
- WBC [3]: 126.4 x10_2/uL
- KIDNEY_L [3]: 1.1 g
- KIDNEY_R [3]: 1.1 g
- KIDNEY_TOTAL [3]: 2.1 g
- LIVER [3]: 11.6 g
- A/G [3]: 2.1
- ALP [3]: 1212.4 IU/L
- ALT [3]: 32.8 IU/L
- AST [3]: 62 IU/L
- BUN [3]: 17 mg/dL
- CRE [3]: 0.6 mg/dL
- Ca [3]: 10.5 mg/dL
- Cl [3]: 107.2 meq/L
- DBIL [3]: 0.058 mg/dL
- GLC [3]: 199.6 mg/dL
- IP [3]: 8.3 mg/dL
- K [3]: 4.9 meq/L
- LDH [3]: 91.6 IU/L
- Na [3]: 139.6 meq/L
- PL [3]: 143.8 mg/dL
- RALB [3]: 3.9 g/dL
- TBIL [3]: 0.4 mg/dL
- TC [3]: 78.2 mg/dL
- TG [3]: 64.8 mg/dL
- TP [3]: 5.7 g/dL
- gamma-GTP [3]: 1 IU/L
- TERMINAL_BW [4]: 284.3 g
- TERMINAL_BW [5]: 341.8 g
- TERMINAL_BW [6]: 428.5 g
- APTT [4]: 16.5 s
- Bas [4]: 0%
- Eos [4]: 1%
- Fbg [4]: 240 mg/dL
- Hb [4]: 13.7 g/dL
- Ht [4]: 41.4%
- Lym [4]: 79.8%
- MCH [4]: 20.6 pg
- MCHC [4]: 33.1%
- MCV [4]: 62.2 fL
- Mono [4]: 8%
- Neu [4]: 11.6%
- PT [4]: 11.7 s
- Plat [4]: 112.9 x10_4/uL
- RBC [4]: 666.6 x10_4/ul
- Ret [4]: 6.2%
- WBC [4]: 126.6 x10_2/uL
- APTT [5]: 16.2 s
- Bas [5]: 0%
- Eos [5]: 0.8%
- Fbg [5]: 236.6 mg/dL
- Hb [5]: 14.2 g/dL
- Ht [5]: 43.1%
- Lym [5]: 86.4%
- MCH [5]: 20.5 pg
- MCHC [5]: 32.9%
- MCV [5]: 62.4 fL
- Mono [5]: 5.8%
- Neu [5]: 7.2%
- PT [5]: 11.8 s
- Plat [5]: 114.5 x10_4/uL
- RBC [5]: 689.8 x10_4/ul
- Ret [5]: 5.1%
- WBC [5]: 134.6 x10_2/uL
- APTT [6]: 16.9 s
- Bas [6]: 0%
- Eos [6]: 1%
- Fbg [6]: 255.2 mg/dL
- Hb [6]: 15.1 g/dL
- Ht [6]: 45.3%
- Lym [6]: 83.6%
- MCH [6]: 19.6 pg
- MCHC [6]: 33.4%
- MCV [6]: 58.6 fL
- Mono [6]: 3.8%
- Neu [6]: 11.4%
- PT [6]: 11.9 s
- Plat [6]: 101.6 x10_4/uL
- RBC [6]: 774.2 x10_4/ul
- Ret [6]: 3.1%
- WBC [6]: 136.4 x10_2/uL
- KIDNEY_L [4]: 1.2 g
- KIDNEY_R [4]: 1.2 g
- KIDNEY_TOTAL [4]: 2.4 g
- KIDNEY_L [5]: 1.3 g
- KIDNEY_R [5]: 1.3 g
- KIDNEY_TOTAL [5]: 2.6 g
- KIDNEY_L [6]: 1.5 g
- KIDNEY_R [6]: 1.5 g
- KIDNEY_TOTAL [6]: 3 g
- LIVER [4]: 14.5 g
- LIVER [5]: 16.3 g
- LIVER [6]: 18.6 g
- A/G [4]: 2
- ALP [4]: 1041.2 IU/L
- ALT [4]: 33.2 IU/L
- AST [4]: 61.4 IU/L
- BUN [4]: 19.4 mg/dL
- CRE [4]: 0.6 mg/dL
- Ca [4]: 11.3 mg/dL
- Cl [4]: 106.4 meq/L
- DBIL [4]: 0.006 mg/dL
- GLC [4]: 192.2 mg/dL
- IP [4]: 8.4 mg/dL
- K [4]: 4.8 meq/L
- LDH [4]: 105.8 IU/L
- Na [4]: 140 meq/L
- PL [4]: 163.8 mg/dL
- RALB [4]: 4.1 g/dL
- TBIL [4]: 0.4 mg/dL
- TC [4]: 88 mg/dL
- TG [4]: 134.2 mg/dL
- TP [4]: 6.3 g/dL
- gamma-GTP [4]: 1 IU/L
- A/G [5]: 1.9
- ALP [5]: 898.8 IU/L
- ALT [5]: 32 IU/L
- AST [5]: 53.2 IU/L
- BUN [5]: 22.6 mg/dL
- CRE [5]: 0.6 mg/dL
- Ca [5]: 10.8 mg/dL
- Cl [5]: 106.2 meq/L
- DBIL [5]: 0.006 mg/dL
- GLC [5]: 201.2 mg/dL
- IP [5]: 8.3 mg/dL
- K [5]: 4.7 meq/L
- LDH [5]: 89.8 IU/L
- Na [5]: 139.6 meq/L
- PL [5]: 151.4 mg/dL
- RALB [5]: 4.1 g/dL
- TBIL [5]: 0.3 mg/dL
- TC [5]: 72.2 mg/dL
- TG [5]: 141.2 mg/dL
- TP [5]: 6.3 g/dL
- gamma-GTP [5]: 1 IU/L
- A/G [6]: 1.7
- ALP [6]: 678.8 IU/L
- ALT [6]: 31.6 IU/L
- AST [6]: 65 IU/L
- BUN [6]: 21.4 mg/dL
- CRE [6]: 0.7 mg/dL
- Ca [6]: 10.7 mg/dL
- Cl [6]: 107 meq/L
- DBIL [6]: 0.004 mg/dL
- GLC [6]: 185.2 mg/dL
- IP [6]: 7.5 mg/dL
- K [6]: 4.4 meq/L
- LDH [6]: 90.4 IU/L
- Na [6]: 140.4 meq/L
- PL [6]: 157.4 mg/dL
- RALB [6]: 4.3 g/dL
- TBIL [6]: 0.3 mg/dL
- TC [6]: 80 mg/dL
- TG [6]: 179.2 mg/dL
- TP [6]: 6.8 g/dL
- gamma-GTP [6]: 1.8 IU/L
- TERMINAL_BW [7]: 240.2 g
- APTT [7]: 16.8 s
- Bas [7]: 0%
- Eos [7]: 0.6%
- Fbg [7]: 308.4 mg/dL
- Hb [7]: 12.7 g/dL
- Ht [7]: 38%
- Lym [7]: 68.4%
- MCH [7]: 21.5 pg
- MCHC [7]: 33.5%
- MCV [7]: 64.4 fL
- Mono [7]: 12.4%
- Neu [7]: 18.6%
- PT [7]: 11.1 s
- Plat [7]: 98 x10_4/uL
- RBC [7]: 589.8 x10_4/ul
- Ret [7]: 7.9%
- WBC [7]: 137.8 x10_2/uL
- KIDNEY_L [7]: 1.1 g
- KIDNEY_R [7]: 1.1 g
- KIDNEY_TOTAL [7]: 2.2 g
- LIVER [7]: 12.4 g
- A/G [7]: 1.7
- ALP [7]: 739.2 IU/L
- ALT [7]: 29.8 IU/L
- AST [7]: 54 IU/L
- BUN [7]: 16.2 mg/dL
- CRE [7]: 0.6 mg/dL
- Ca [7]: 10.5 mg/dL
- Cl [7]: 107.6 meq/L
- DBIL [7]: 0.038 mg/dL
- GLC [7]: 191.6 mg/dL
- IP [7]: 8.3 mg/dL
- K [7]: 4.6 meq/L
- LDH [7]: 160.4 IU/L
- Na [7]: 140.4 meq/L
- PL [7]: 147 mg/dL
- RALB [7]: 3.4 g/dL
- TBIL [7]: 0.3 mg/dL
- TC [7]: 76.2 mg/dL
- TG [7]: 135.4 mg/dL
- TP [7]: 5.5 g/dL
- gamma-GTP [7]: 1.6 IU/L
- TERMINAL_BW [8]: 244 g
- APTT [8]: 18.4 s
- Bas [8]: 0%
- Eos [8]: 0.8%
- Fbg [8]: 377 mg/dL
- Hb [8]: 11.7 g/dL
- Ht [8]: 35%
- Lym [8]: 51.5%
- MCH [8]: 20.4 pg
- MCHC [8]: 33.4%
- MCV [8]: 61.1 fL
- Mono [8]: 12.2%
- Neu [8]: 36%
- PT [8]: 11.8 s
- Plat [8]: 143.2 x10_4/uL
- RBC [8]: 571.8 x10_4/ul
- Ret [8]: 10.2%
- WBC [8]: 128.2 x10_2/uL
- PT [9]: 11.3 s
- KIDNEY_L [8]: 1.1 g
- KIDNEY_R [8]: 1.1 g
- KIDNEY_TOTAL [8]: 2.2 g
- LIVER [8]: 11.6 g
- A/G [8]: 1.2
- ALP [8]: 1313 IU/L
- ALT [8]: 31.2 IU/L
- AST [8]: 91.5 IU/L
- BUN [8]: 19.8 mg/dL
- CRE [8]: 0.6 mg/dL
- Ca [8]: 10.8 mg/dL
- Cl [8]: 102.2 meq/L
- DBIL [8]: 0.1 mg/dL
- GLC [8]: 169.8 mg/dL
- IP [8]: 11.3 mg/dL
- K [8]: 6.1 meq/L
- LDH [8]: 180.8 IU/L
- Na [8]: 133.5 meq/L
- PL [8]: 135.8 mg/dL
- RALB [8]: 2.9 g/dL
- TBIL [8]: 0.4 mg/dL
- TC [8]: 71 mg/dL
- TG [8]: 106.5 mg/dL
- TP [8]: 5.6 g/dL
- gamma-GTP [8]: 5.8 IU/L
- TBIL [9]: 0.3 mg/dL
- TC [9]: 66.5 mg/dL

Reference: ChEMBL document CHEMBL3885861, “Open TG-GATES”
